Assay results from patent US9540348B2, “Imidazole-1-yl pyrimidine derivatives, or pharmacutically acceptable salt thereof, and pharmaceutic composition comprising the same as an active ingredient” (Industry-University Cooperation Foundation Hanyang …, priority 2015, dated 2017).
Entries after “also recorded” stand apart in the source; their conditions may differ.

Assays:
[1] = tested on: A375P human melanoma cell line; test: Antiproliferative activity to A375P human melanoma cell line; format: cell-based; conditions: for GI50: A375P human melanoma cell line, read-out: A375P (GI50, Unit: μM); for potency against A375P, in words: A375P cell line, comparison with Sorafenib
Description: (§1) The antiproliferative activity of the compounds of Examples to A375P human melanoma cell line and U937 human leukemic monocyte lymphoma cell line are evaluated and listed in the following Table 1.

[2] = tested on: U937 human leukemic monocyte lymphoma cell line; test: Antiproliferative activity to U937 human leukemic monocyte lymphoma cell line; format: cell-based; conditions: for GI50: U-937, U937 human leukemic monocyte lymphoma cell line, read-out: U937 (GI50, Unit: μM); for potency against U937, in words: U937 cell line, comparison with Sorafenib
Description: as §1

Question: What does the source list for C[C@H](O)CNc1nccc(-n2ccnc2Cc2cccc(NC(=O)c3cc(N4CCN(C)CC4)cc(C(F)(F)F)c3)c2)n1 [Example 1, (S)—N-(3-((1-(2-((2-hydroxypropyl)amino)pyrimidin-4-yl)-1H-imidazol-2-yl)methyl)phenyl)-3-(4-methylpiperazin-1-yl)-5-(trifluoromethyl)benzamide]?
Answer: GI50 [1]: 12.3 µM; GI50 [2]: > 30 µM

Question: For Cc1cc(C)cc(C(=O)Nc2cccc(Cc3nccn3-c3ccnc(NC[C@H](C)O)n3)c2)c1 [Example 2, (S)—N-(3-((1-(2-((2-hydroxypropyl)amino)pyrimidin-4-yl)-1H-imidazol-2-yl)methyl)phenyl)-3,5-dimethylbenzamide], which GI50 [2] is on record?
Answer: The GI50 was 16.8 µM.

Question: Which results are given for C[C@H](O)CNc1nccc(-n2ccnc2Cc2cccc(NC(=O)Cc3ccccc3F)c2)n1 [Example 4, (S)-2-(2-fluorophenyl)-N-(3-((1-(2-((2-hydroxypropyl)amino)pyrimidin-4-yl)-1H-imidazol-2-yl)methyl)phenyl)acetamide]?
Answer: GI50 [1]: 7.45 µM; GI50 [2]: > 30 µM

Question: What does the source list for C[C@H](O)CNc1nccc(-n2ccnc2Cc2cccc(NC(=O)c3cnn(-c4ccccc4)c3C(F)(F)F)c2)n1 [Example 5, (S)—N-(3-((1-(2-((2-hydroxypropyl)amino)pyrimidin-4-yl)-1H-imidazol-2-yl)methyl)phenyl)-1-phenyl-5-(trifluoromethyl)-1H-pyrazole-4-carboxamide]?
Answer: GI50 [1]: 6.39 µM; GI50 [2]: 25.8 µM

Question: C[C@H](O)CNc1nccc(-n2ccnc2Cc2cccc(NC(=O)c3ccc(Cl)cc3)c2)n1 [Example 6, (S)-4-chloro-N-(3-((1-(2-((2-hydroxypropyl)amino)pyrimidin-4-yl)-1H-imidazol-2-yl)methyl)phenyl)benzamide] was tested. Which GI50 [1] did it give?
Answer: Its GI50 is 10.2 µM.

Question: What about the GI50 [2] of the same compound?
Answer: Its GI50 is greater than 30 µM.

Question: For C[C@H](O)CNc1nccc(-n2ccnc2Cc2cccc(NC(=O)c3ccc4[nH]nnc4c3)c2)n1 [Example 9, (S)—N-(3-((1-(2-((2-hydroxypropyl)amino)pyrimidin-4-yl)-1H-imidazol-2-yl)methyl)phenyl)-1H-benzo[d][1,2,3]triazole-5-carboxamide], which GI50 [1] is on record?
Answer: Its GI50 is greater than 30 µM.

Question: And the GI50 [2]?
Answer: Its GI50 is 18.5 µM.

Question: How did the GI50 [1] turn out when C[C@H](O)CNc1nccc(-n2ccnc2Cc2cccc(NC(=O)c3ccncc3)c2)n1 [Example 10, (S)—N-(3-((1-(2-((2-hydroxypropyl)amino)pyrimidin-4-yl)-1H-imidazol-2-yl)methyl)phenyl)isonicotinamide] was run?
Answer: Its GI50 is 8.92 µM.

Question: What does the source list for C[C@H](O)CNc1nccc(-n2ccnc2Cc2cccc(NC(=O)Cc3ccc(-c4ccccc4)cc3)c2)n1 [Example 11, (S)-2-([1,1′-biphenyl]-4-yl)-N-(3-((1-(2-((2-hydroxypropyl)amino)pyrimidin-4-yl)-1H-imidazol-2-yl)methyl)phenyl)acetamide]?
Answer: GI50 [1]: 11.2 µM; GI50 [2]: 10 µM

Question: With C[C@H](O)CNc1nccc(-n2ccnc2Cc2cccc(NC(=O)c3ccc(-c4ccccc4)cc3)c2)n1 [Example 12, (S)—N-(3-((1-(2-((2-hydroxypropyl)amino)pyrimidin-4-yl)-1H-imidazol-2-yl)methyl)phenyl)-[1,1′-biphenyl]-4-carboxamide] as the compound, how does the “potency against A375P, in words” value [1] read?
Answer: The value was “large potencies; also recorded: better potencies than Sorafenib”.

Question: What about the GI50 [1] of the same compound?
Answer: Its GI50 is 0.6 µM.

Question: And the “potency against U937, in words” value [2]?
Answer: The value was “large potencies; also recorded: better potencies than Sorafenib”.

Question: What about the GI50 [2] of the same compound?
Answer: The GI50 was 1.68 µM.

Question: With C[C@H](O)CNc1nccc(-n2ccnc2Cc2cccc(NC(=O)c3ccccc3Sc3ccccc3C#N)c2)n1 [Example 15, (S)-2-((2-cyanophenyl)thio)-N-(3-((1-(2-((2-hydroxypropyl)amino)pyrimidin-4-yl)-1H-imidazol-2-yl)methyl)phenyl)benzamide] as the compound, how does the GI50 [2] read?
Answer: Its GI50 is 10 µM.

Question: Cc1c(C)c2c(c(C)c1O)CC[C@](C)(C(=O)Nc1cccc(Cc3nccn3-c3ccnc(NC[C@H](C)O)n3)c1)O2 [Example 16, (R)-6-hydroxy-N-(3-((1-(2-(((S)-2-hydroxypropyl)amino)pyrimidin-4-yl)-1H-imidazol-2-yl)methyl)phenyl)-2,5,7,8-tetramethylchromane-2-carboxamide] was tested. Which GI50 [2] did it give?
Answer: Its GI50 is 23.6 µM.

Question: Which GI50 [1] does the source give for C[C@H](O)CNc1nccc(-n2ccnc2Cc2cccc(NC(=O)C(c3ccc(Cl)cc3)c3ccc(Cl)cc3)c2)n1 [Example 17, (S)-2,2-bis(4-chlorophenyl)-N-(3-((1-(2-(2-hydroxypropylamino)pyrimidin-4-yl)-1H-imidazol-2-yl)methyl)phenyl)acetamide] here?
Answer: The GI50 was 3.97 µM.

Question: And the GI50 [2]?
Answer: Its GI50 is 3.24 µM.

Question: Which results are given for C[C@H](O)CNc1nccc(-n2ccnc2Cc2cccc(NC(=O)c3ccc(Cl)c(C(F)(F)F)c3)c2)n1 [Example 19, (S)-4-chloro-N-(3-((1-(2-((2-hydroxypropyl)amino)pyrimidin-4-yl)-1H-imidazol-2-yl)methyl)phenyl)-3-(trifluoromethyl)benzamide]?
Answer: potency against A375P, in words [1]: large potencies; GI50 [1]: 3.3 µM; potency against U937, in words [2]: large potencies; GI50 [2]: 6.83 µM

Question: C[C@H](O)CNc1nccc(-n2ccnc2Cc2cccc(NC(=O)c3cc(N4CCOCC4)cc(C(F)(F)F)c3)c2)n1 [Example 20, (S)—N-(3-((1-(2-((2-hydroxypropyl)amino)pyrimidin-4-yl)-1H-imidazol-2-yl)methyl)phenyl)-3-morpholino-5-(trifluoromethyl)benzamide] was tested. Which GI50 [1] did it give?
Answer: Its GI50 is 6.6 µM.

Question: And the GI50 [2]?
Answer: Its GI50 is 9.7 µM.

Question: With C[C@H](O)CNc1nccc(-n2ccnc2Cc2cccc(NC(=O)Nc3cccc(Cl)c3)c2)n1 [Example 21, (S)-1-(3-chlorophenyl)-3-(3-((1-(2-((2-hydroxypropyl)amino)pyrimidin-4-yl)-1H-imidazol-2-yl)methyl)phenyl)urea] as the compound, how does the GI50 [1] read?
Answer: Its GI50 is 19.2 µM.

Question: And the GI50 [2]?
Answer: Its GI50 is 1.73 µM.

Question: With C[C@H](O)CNc1nccc(-n2ccnc2Cc2cccc(NC(=O)Nc3ccc(Cl)c(Cl)c3)c2)n1 [Example 22, (S)-1-(3,4-dichlorophenyl)-3-(3-((1-(2-((2-hydroxypropyl)amino)pyrimidin-4-yl)-1H-imidazol-2-yl)methyl)phenyl)urea] as the compound, how does the GI50 [1] read?
Answer: Its GI50 is 26.2 µM.

Question: And the GI50 [2]?
Answer: The GI50 was 15.3 µM.

Question: How did the GI50 [1] turn out when C[C@H](O)CNc1nccc(-n2ccnc2C(=O)c2cccc(NC(=O)c3cccc(C(F)(F)F)c3)c2)n1 [Example 25, (S)—N-(3-(1-(2-((2-hydroxypropyl)amino)pyrimidin-4-yl)-1H-imidazole-2-carbonyl)phenyl)-3-(trifluoromethyl)benzamide] was run?
Answer: The GI50 was greater than 30 µM.

Question: And the GI50 [2]?
Answer: Its GI50 is 3.78 µM.

Question: Which results are given for COc1ccc(-c2ccc(C(=O)Nc3cccc(C(=O)c4nccn4-c4ccnc(NC[C@H](C)O)n4)c3)o2)cc1 [Example 26, (S)—N-(3-(1-(2-((2-hydroxypropyl)amino)pyrimidin-4-yl)-1H-imidazole-2-carbonyl)phenyl)-5-(4-methoxyphenyl)furan-2-carboxamide]?
Answer: GI50 [1]: 9.39 µM; GI50 [2]: 2.55 µM

Question: C[C@H](O)CNc1nccc(-n2ccnc2C(=O)c2cccc(NC(=O)c3cc(N4CCOCC4)cc(C(F)(F)F)c3)c2)n1 [Example 27, (S)—N-(3-(1-(2-((2-hydroxypropyl)amino)pyrimidin-4-yl)-1H-imidazole-2-carbonyl)phenyl)-3-morpholino-5-(trifluoromethyl)benzamide] was tested. Which GI50 [2] did it give?
Answer: The GI50 was 4.9 µM.

Question: How did the GI50 [1] turn out when C[C@H](O)CNc1nccc(-n2ccnc2C(=O)c2cccc(NC(=O)c3cc(N4CCN(C)CC4)cc(C(F)(F)F)c3)c2)n1 [Example 28, (S)—N-(3-(1-(2-((2-hydroxypropyl)amino)pyrimidin-4-yl)-1H-imidazole-2-carbonyl)phenyl)-3-(4-methylpiperazin-1-yl)-5-(trifluoromethyl)benzamide] was run?
Answer: The GI50 was 27.8 µM.

Question: For C[C@H](O)CNc1nccc(-n2ccnc2C(=O)c2ccc(NC(=O)c3ccc(Cl)cc3)cc2)n1 [Example 33, (S)-4-chloro-N-(4-(1-(2-((2-hydroxypropyl)amino)pyrimidin-4-yl)-1H-imidazole-2-carbonyl)phenyl)benzamide], which GI50 [1] is on record?
Answer: The GI50 was 7.07 µM.

Question: Which GI50 [1] does the source give for C[C@H](O)CNc1nccc(-n2ccnc2C(=O)c2ccc(NC(=O)c3cccc(Cl)c3)cc2)n1 [Example 34, (S)-3-chloro-N-(4-(1-(2-((2-hydroxypropyl)amino)pyrimidin-4-yl)-1H-imidazole-2-carbonyl)phenyl)benzamide] here?
Answer: The GI50 was 5.92 µM.

Question: Which results are given for C[C@H](O)CNc1nccc(-n2ccnc2C(=O)c2ccc(NC(=O)c3cc(N4CCN(C)CC4)cc(C(F)(F)F)c3)cc2)n1 [Example 36, (S)—N-(4-(1-(2-((2-hydroxypropyl)amino)pyrimidin-4-yl)-1H-imidazole-2-carbonyl)phenyl)-3-(4-methylpiperazin-1-yl)-5-(trifluoromethyl)benzamide]?
Answer: GI50 [1]: > 30 µM; GI50 [2]: 14.7 µM

Question: With C[C@H](O)CNc1nccc(-n2ccnc2C(=O)c2ccc(NC(=O)Nc3ccc(Cl)c(C(F)(F)F)c3)cc2)n1 [Example 38, (S)-1-(4-chloro-3-(trifluoromethyl)phenyl)-3-(4-(1-(2-((2-hydroxypropyl)amino)pyrimidin-4-yl)-1H-imidazole-2-carbonyl)phenyl)urea] as the compound, how does the GI50 [1] read?
Answer: Its GI50 is greater than 30 µM.

Question: And the GI50 [2]?
Answer: The GI50 was 7.45 µM.

Question: Which results are given for C[C@H](O)CNc1nccc(-n2ccnc2C(=O)c2ccc(NC(=O)Nc3ccc(Cl)c(Cl)c3)cc2)n1 [Example 39, (S)-1-(3,4-dichlorophenyl)-3-(4-(1-(2-((2-hydroxypropyl)amino)pyrimidin-4-yl)-1H-imidazole-2-carbonyl)phenyl)urea]?
Answer: GI50 [1]: > 30 µM; GI50 [2]: 11.6 µM

Question: What does the source list for CNC(=O)c1cc(Oc2ccc(NC(=O)Nc3ccc(Cl)c(C(F)(F)F)c3)cc2)ccn1 [Sorafenib, reference compound]?
Answer: GI50 [1]: 3.4 µM; GI50 [2]: 2.74 µM
